Values joined by “and” are separate entries in the source; they are usually repeats but may differ in a detail not shown here. Equal entries are not always repeated.
Assay: xn = mol fraction of the nth substance listed

CC(C)(C)O + O
Settings | viscosity
298.15 K, 100 kPa, x1 = 0.1 | 3.149 mPa·s
298.15 K, 100 kPa, x1 = 0.25 | 4.729 mPa·s
298.15 K, 100 kPa, x1 = 0.3 | 4.782 mPa·s
298.15 K, 100 kPa, x1 = 0.4 | 4.889 mPa·s
298.15 K, 100 kPa, x1 = 0.5 | 4.646 mPa·s
298.15 K, 100 kPa, x1 = 0.75 | 4.225 mPa·s
298.15 K, 101 kPa, x1 = 0.026 | 1.506 mPa·s
298.15 K, 101 kPa, x1 = 0.057 | 2.309 mPa·s
298.15 K, 101 kPa, x1 = 0.094 | 3.123 mPa·s
298.15 K, 101 kPa, x1 = 0.14 | 3.797 mPa·s
298.15 K, 101 kPa, x1 = 0.2 | 4.311 mPa·s
298.15 K, 101 kPa, x1 = 0.27 | 4.715 mPa·s
298.15 K, 101 kPa, x1 = 0.36 | 4.835 mPa·s
298.15 K, 101 kPa, x1 = 0.49 | 4.73 mPa·s
298.15 K, 101 kPa, x1 = 0.69 | 4.355 mPa·s
298.15 K, 101.33 kPa, x1 = 0.02 | 1.315 mPa·s and 1.33 mPa·s and 1.27 mPa·s
298.15 K, 101.33 kPa, x1 = 0.0206 | 1.337 mPa·s
298.15 K, 101.33 kPa, x1 = 0.026 | 1.52 mPa·s and 1.45 mPa·s
298.15 K, 101.33 kPa, x1 = 0.0397 | 1.85 mPa·s
298.15 K, 101.33 kPa, x1 = 0.04 | 1.89 mPa·s and 1.79 mPa·s
298.15 K, 101.33 kPa, x1 = 0.0447 | 2.015 mPa·s
298.15 K, 101.33 kPa, x1 = 0.057 | 2.35 mPa·s and 2.19 mPa·s
298.15 K, 101.33 kPa, x1 = 0.06 | 2.379 mPa·s and 2.42 mPa·s and 2.26 mPa·s
298.15 K, 101.33 kPa, x1 = 0.0745 | 2.78 mPa·s
298.15 K, 101.33 kPa, x1 = 0.0798 | 2.818 mPa·s
298.15 K, 101.33 kPa, x1 = 0.094 | 3.16 mPa·s and 2.97 mPa·s
298.15 K, 101.33 kPa, x1 = 0.1 | 3.26 mPa·s and 3.05 mPa·s
298.15 K, 101.33 kPa, x1 = 0.101 | 3.238 mPa·s
298.15 K, 101.33 kPa, x1 = 0.1121 | 3.55 mPa·s
298.15 K, 101.33 kPa, x1 = 0.1181 | 3.532 mPa·s
298.15 K, 101.33 kPa, x1 = 0.139 | 3.88 mPa·s and 3.66 mPa·s
298.15 K, 101.33 kPa, x1 = 0.1395 | 3.842 mPa·s
298.15 K, 101.33 kPa, x1 = 0.1574 | 4.288 mPa·s
298.15 K, 101.33 kPa, x1 = 0.1609 | 4.176 mPa·s
298.15 K, 101.33 kPa, x1 = 0.196 | 4.47 mPa·s and 4.41 mPa·s
298.15 K, 101.33 kPa, x1 = 0.198 | 4.441 mPa·s
298.15 K, 101.33 kPa, x1 = 0.2199 | 4.888 mPa·s
298.15 K, 101.33 kPa, x1 = 0.267 | 4.89 mPa·s and 4.86 mPa·s
298.15 K, 101.33 kPa, x1 = 0.3027 | 4.984 mPa·s
298.15 K, 101.33 kPa, x1 = 0.3035 | 5.292 mPa·s
298.15 K, 101.33 kPa, x1 = 0.362 | 4.99 mPa·s and 4.96 mPa·s
298.15 K, 101.33 kPa, x1 = 0.4285 | 5.484 mPa·s
298.15 K, 101.33 kPa, x1 = 0.4313 | 5.285 mPa·s
298.15 K, 101.33 kPa, x1 = 0.4315 | 5.316 mPa·s
298.15 K, 101.33 kPa, x1 = 0.493 | 4.86 mPa·s and 4.86 mPa·s
298.15 K, 101.33 kPa, x1 = 0.4939 | 5.199 mPa·s
298.15 K, 101.33 kPa, x1 = 0.5001 | 4.811 mPa·s
298.15 K, 101.33 kPa, x1 = 0.5965 | 4.912 mPa·s
298.15 K, 101.33 kPa, x1 = 0.686 | 4.48 mPa·s and 4.5 mPa·s
298.15 K, 101.33 kPa, x1 = 0.6961 | 4.646 mPa·s
298.15 K, 101.33 kPa, x1 = 0.6976 | 4.409 mPa·s
298.15 K, 101.33 kPa, x1 = 0.7888 | 4.392 mPa·s
298.15 K, 101.33 kPa, x1 = 0.7907 | 4.397 mPa·s
298.15 K, 101.33 kPa, x1 = 0.7931 | 4.254 mPa·s
298.15 K, 101.33 kPa, x1 = 0.822 | 4.27 mPa·s and 4.28 mPa·s
298.15 K, 101.33 kPa, x1 = 0.8932 | 4.308 mPa·s
298.15 K, 101.33 kPa, x1 = 0.9088 | 4.222 mPa·s
298.15 K, 101.33 kPa, x1 = 0.9422 | 4.288 mPa·s
298.15 K, 101.33 kPa, x1 = 0.96 | 4.37 mPa·s and 4.41 mPa·s
298.15 K, 101.33 kPa, x1 = 0.9734 | 4.408 mPa·s
303 K, 101 kPa, x2 = 0.3 | 3.527 mPa·s
303 K, 101 kPa, x2 = 0.5 | 3.881 mPa·s
303 K, 101 kPa, x2 = 0.65 | 3.975 mPa·s
303 K, 101 kPa, x2 = 0.91 | 2.475 mPa·s
303 K, 101 kPa, x2 = 0.95 | 1.772 mPa·s
303.2 K, 101.33 kPa, x2 = 0.05 | 3.236 mPa·s
303.2 K, 101.33 kPa, x2 = 0.1 | 3.214 mPa·s
303.2 K, 101.33 kPa, x2 = 0.15 | 3.247 mPa·s
303.2 K, 101.33 kPa, x2 = 0.2 | 3.309 mPa·s
303.2 K, 101.33 kPa, x2 = 0.3 | 3.455 mPa·s
303.2 K, 101.33 kPa, x2 = 0.4 | 3.599 mPa·s
303.2 K, 101.33 kPa, x2 = 0.5 | 3.743 mPa·s
303.2 K, 101.33 kPa, x2 = 0.6 | 3.877 mPa·s
303.2 K, 101.33 kPa, x2 = 0.7 | 3.836 mPa·s
303.2 K, 101.33 kPa, x2 = 0.8 | 3.541 mPa·s
303.2 K, 101.33 kPa, x2 = 0.85 | 3.182 mPa·s
303.2 K, 101.33 kPa, x2 = 0.9 | 2.604 mPa·s
303.2 K, 101.33 kPa, x2 = 0.95 | 1.738 mPa·s
304 K, 101 kPa, x2 = 0.75 | 3.646 mPa·s
305 K, 101 kPa, x2 = 0.1 | 3.026 mPa·s
308.15 K, 101 kPa, x1 = 0.05 | 1.541 mPa·s
308.15 K, 101 kPa, x1 = 0.1 | 2.188 mPa·s
308.15 K, 101 kPa, x1 = 0.2 | 2.951 mPa·s
308.15 K, 101 kPa, x1 = 0.3 | 3.186 mPa·s
308.15 K, 101 kPa, x1 = 0.4 | 3.219 mPa·s
308.15 K, 101 kPa, x1 = 0.5 | 3.116 mPa·s
308.15 K, 101 kPa, x1 = 0.6 | 2.973 mPa·s
308.15 K, 101 kPa, x1 = 0.7 | 2.837 mPa·s
308.15 K, 101 kPa, x1 = 0.8 | 2.701 mPa·s
308.15 K, 101 kPa, x1 = 0.9 | 2.635 mPa·s
308.15 K, 101 kPa, x1 = 0.95 | 2.606 mPa·s
313 K, 101 kPa, x2 = 0.1 | 2.146 mPa·s
313 K, 101 kPa, x2 = 0.3 | 2.33 mPa·s
313 K, 101 kPa, x2 = 0.5 | 2.586 mPa·s
313 K, 101 kPa, x2 = 0.65 | 2.674 mPa·s
313 K, 101 kPa, x2 = 0.75 | 2.587 mPa·s
313 K, 101 kPa, x2 = 0.91 | 1.747 mPa·s
313 K, 101 kPa, x2 = 0.95 | 1.287 mPa·s
313.15 K, 101 kPa, x1 = 0.05 | 1.311 mPa·s
313.15 K, 101 kPa, x1 = 0.07 | 1.54 mPa·s
313.15 K, 101 kPa, x1 = 0.1 | 1.84 mPa·s
313.15 K, 101 kPa, x1 = 0.2 | 2.453 mPa·s
313.15 K, 101 kPa, x1 = 0.3 | 2.615 mPa·s
313.15 K, 101 kPa, x1 = 0.4 | 2.618 mPa·s
313.15 K, 101 kPa, x1 = 0.5 | 2.534 mPa·s
323 K, 101 kPa, x2 = 0.1 | 1.471 mPa·s
323 K, 101 kPa, x2 = 0.3 | 1.623 mPa·s
323 K, 101 kPa, x2 = 0.5 | 1.809 mPa·s
323 K, 101 kPa, x2 = 0.65 | 1.889 mPa·s
323 K, 101 kPa, x2 = 0.75 | 1.85 mPa·s
323 K, 101 kPa, x2 = 0.91 | 1.306 mPa·s
323 K, 101 kPa, x2 = 0.95 | 0.9856 mPa·s
323.15 K, 100 kPa, x1 = 0.1 | 1.273 mPa·s
323.15 K, 100 kPa, x1 = 0.3 | 1.834 mPa·s
323.15 K, 100 kPa, x1 = 0.4 | 1.833 mPa·s
323.15 K, 100 kPa, x1 = 0.5 | 1.696 mPa·s
323.15 K, 100 kPa, x1 = 0.75 | 1.429 mPa·s
